Where a name gives a salt, the structure may show the parent alone.
Legend:
[1] = turbidity / appearance of an aqueous solution containing the crystal; assay type: physicochemical; details: for turbidity Abs(600 nm): aqueous solution, absorbance 600 nm
Method: (§1) The crystals obtained in the above examples were filled into vials and the residue rate thereof was examined through the acceleration stability test at 40° C. Further, the turbidity of an aqueous solution containing the crystal was determined.
(§2) The monosulfate crystal of compound (I) obtained in Example 9 was filled into vials and the residue rate thereof was examined through the acceleration stability test at 40° C. Further, the turbidity was determined.
(§3) The crystals obtained in Example 10 were filled into vials and the residue rate thereof was examined through the acceleration stability test at 40° C. Further, the turbidity of solutions was determined.

[2] = acceleration stability test at 40° C. of crystals filled into vials (residue rate, appearance); assay type: physicochemical; details: for appearance (of powder) / residue rate (%): 40° C., vial
Method: as §1, §2
As a reference compound, used was a lyophilization product of monohydrochloride of compound (I) (non-crystal, KF value: 1.7%, 0.6 H2O) obtained according to the method of Example 6-2 of WO 00/32606.
as §3

Row | turbidity Abs(600 nm) ([1]; after 1 month at 40° C.) | turbidity Abs(600 nm) ([1]; initial) | appearance (of powder) ([2]; 1 month) | residue rate (%) ([2]; 1 month) | appearance (of powder) ([2]; initial) | residue rate (%) ([2]; initial) | turbidity upon being dissolved into water (in words) ([1]; after storage at 40° C.) | stability (in words) ([2]; acceleration stability test at 40° C.) | appearance of solution ([1]; after 1 month at 40° C.) | appearance of solution ([1]; after 2 month at 40° C.) | turbidity Abs(600 nm) ([1]; after 2 month at 40° C.) | appearance of solution ([1]; initial) | appearance (of powder) ([2]; 2 month) | residue rate (%) ([2]; 2 month) | SMILES
1 | 0.011 | 0.000 | white | 99.6 | white | 100.0 |  |  |  |  |  |  |  |  | CCO/N=C(\C(=O)N[C@@H]1C(=O)N2C(C(=O)[O-])=C(C[n+]3cccc4c3NCN4CCCNC)CS[C@H]12)c1nsc(N)n1 [Example 6(1)]
2 | 0.007 | 0.006 | white | 99.0 | white | 100.0 |  |  |  |  |  |  |  |  | CCO/N=C(\C(=O)N[C@@H]1C(=O)N2C(C(=O)[O-])=C(C[n+]3cccc4c3NCN4CCCNC)CS[C@H]12)c1nsc(N)n1 [Example 6(2)]
3 | 0.002 | 0.002 |  | 98.5 | white powder | 100.0 | turbidity was hardly observed | high stability for a long period |  |  |  |  |  |  | CCO/N=C(\C(=O)N[C@@H]1C(=O)N2C(C(=O)[O-])=C(C[n+]3cccc4c3NCN4CCCNC)CS[C@H]12)c1nsc(N)n1 [Example 10]
4 | 0.565 | 0.001 | pale | 94.8 | pale | 100.0 |  |  | Yellow | Yellow | 1.338 | pale | pale | 92.9 | CCO/N=C(\C(=O)N[C@@H]1C(=O)N2C(C(=O)[O-])=C(C[n+]3cccc4c3ncn4CCCNC)CS[C@H]12)c1nsc(N)n1 [hydrochloride, reference compound]

From patent US20040157821A1, “Sulfate of cephem compound” (priority 2001, published 2004)
